Measurements as given in patent EP1656945A1, “Pharmaceutical composition comprising oligoarginine” (THE BOARD OF TRUSTEES OF THE LELAND STANFORD JUNIOR …, priority 1999, dated 2006).

Columns and labels:
cytokine-stimulated VSMC = assay: Effect of arginine oligomers on NO production (NO2, Griess reaction) in cytokine-stimulated VSMC; type: cell-based, rat
Protocol: (§1) Rat VSMCs were prepared from the media layer of thoracic aorta of Sprague-Dawley rats by the explant method. The cells were cultured in Dulbecco's modified Eagle's medium (DMEM, Gibco BRL, Gaithersburg, MD) containing 10% fetal calf serum, 100U/ml penicillin and 100µg/ml streptomycin at 37°C under a humidified atmosphere containing 5% CO2. After subconfluent growth, cells were cultured with MEM Select Amine Kit (Gibco BRL, Gaithersburg, MD) to be treated by specific concentrations of extracellular free L-arginine. Experiments were performed using cultured cells at passage levels of 5-10.
Extracellular NO production was measured as its stable oxidative metabolite, nitrite (NO2). At the end of each incubation, samples of the medium (80µl) were collected, and NO2 measurement was performed using the Griess reaction facilitated by a commercial colorimetric assay (Cayman Chemical, Ann Arbor, MI). Values of NO2 production were corrected with relative cell count assessed by a cell proliferation kit II (XTT) (Boeheringer Mannheim, Germany).
Subconfluent cells were pre-incubated with medium containing 100µM arginine for 24 hours. […] After translocation, the cells were incubated with a mixture of IFN-γ (100U/ml) and LPS (100µg/ml) in medium containing 100µM L-arginine for another 24 hours. In some experiments, L-NMMA (1mM), a nitric oxide synthase inhibitor, was added to the medium.

rat VSMC = assay: Stimulation of VSMC with interferon-γ and LPS, dependence of NO2 production on cytokine and L-arginine; type: cell-based; details: extracellular L-arginine over the range of 0 to 10mM, IFN-γ (100U/ml) and LPS (100µg/ml) 24 hours
Protocol: as §1
Extracellular NO production was measured as its stable oxidative metabolite, nitrite (NO2). […] Values of NO2 production were corrected with relative cell count assessed by a cell proliferation kit II (XTT) (Boeheringer Mannheim, Germany).
Cells were plated at a density of 5 × 10^3 per well into 96-well plates. […] After 24 hours of incubation, the cells were then treated with a mixture of IFN-γ (100U/ml) and LPS (100µg/ml) in the medium containing the same dose of L-arginine for another 24 hours, and nitrite (NO2) accumulation in the culture medium was quantified.
No detectable NO2 was measured in the medium of non-stimulated VSMC. When cells were stimulated with a mixture of IFN-γ (100U/ml) and LPS ([…]), a significant amount of NO2 was detected in the medium (14.7 ± 0.3 µM / 10^5 cells / 24 hours). […]

[1] = test system: rabbit carotid artery segment; assay: Ex vivo translocation of biotin-labeled peptides into carotid artery segments; design: species or system New Zealand white rabbits; details: reincubated in DMEM with 10% FBS; for positive staining (internalized biotin): day 5 after exposure (10.0 µM, 30 minutes)
Protocol: After incubation with biotin labeled oligomer, vascular segments were washed, then frozen in OCT compound (Miles Scientific). Frozen sections, 5 µm thick, were fixed with acetone for 10 minutes. Internalized biotin was detected using the staining procedure described in Example 2. Methyl green was used for nuclear counter staining.
To quantify the efficiency of nuclear translocation, the numbers of both DAB positive nuclei and total nuclei were counted in the intima and media separately at X400 magnification with a video image analysis system (Automatrix). The frequency of nuclear translocation was expressed as the percent staining of nuclei, defined as the ratio of the number of DAB positive nuclei to that of all nuclei, in the intima and media. Each protocol was repeated 4 times.
Both carotid artery and jugular vein segments of male New Zealand white rabbits were used. To test the dose dependence of R7 translocation, vascular segments were incubated for 30 minutes with either bL-R7 or bD-R7 solution (0.1, 1.0, and 10.0 µM) in serum-free Dulbecco's minimal essential medium (DMEM) (Gibco BRL). To test the incubation time dependence, vascular segments were incubated with 10.0 µM of biotin labeled R7 solution for 10 seconds, 60 seconds, 5 minutes, 10 minutes, and 30 minutes. Furthermore, to determine the ability of R7 to penetrate through the vessel wall, vascular segments were ligated one end, R7 containing medium was instilled, and the other end ligated so as to expose only the luminal surface to R7. The luminal surface of the vascular segment was exposed to bL-R7 or bD-R7 (10.0 µM) for 30 minutes. To test the temperature dependence of translocation, vascular segments were incubated with 10.0 µM of biotin labeled R7 solutions at 37°C or 4°C. To determine the disappearance time course of translocated R7. vascular segments were incubated with biotin labeled R7 solutions (10.0 µM) at 37°C for 30 minutes, and then reincubated in DMEM with 10% FBS up to 5 days. Vascular segments were harvested at 1, 2 and 5 days after initial incubation.

[2] = test system: human umbilical vein endothelial cells (ECV304); assay: In vitro translocation of biotin-labeled peptides into endothelial cells; type: cell-based; details: control treatments, 30 minutes incubation (peptides 0.1, 1.0, and 10.0 µM)
Protocol: In the studies described below, transmembrane transport and cellular uptake of oligomers was assessed by incubating cells or tissue with biotin-oligomer conjugates, followed by treatment with horseradish peroxidase (HRP)-conjugated streptavidin and subsequent incubation with DAB (3,3'-diaminobenzidine), a substrate of the enzyme which produces a highly colored product.
Spontaneously transformed human umbilical vein endothelial cells (ECV304, ATCC) were cultured in medium M199 (Irvine Scientific) containing 10% fetal bovine serum (FBS), 100 IU/ml penicillin and 100 µg/ml of streptomycin (Gibco BRL). Confluent cells were washed and placed in serum-free medium. After 2 hours, the cells were incubated in presence of biotin labeled peptides, as bL-R7, or bD-R7, or bL-K7 (0.1, 1.0, and 10.0 µM). After 30 minutes of incubation, cells were washed 3 times with phosphate-buffered saline (PBS), fixed in ethanol/acetone; washed in PBS; incubated for 30 minutes with peroxidase suppressor (ImmunoPure, Pierce) to block endogenous peroxidase activity; and then incubated with 5 µg/ml of horse-radish peroxidase (HRP) conjugated strepavidin (Pierce) for 30 minutes. Substrate of HRP, diaminobenzidine (DAB, Sigma), was added to the cells. The reaction was terminated by washing in distilled water after a 60-second incubation. This experiment was repeated 3 times.

In the case of `N=C(N)NCCC[C@H](N)C(=O)O` [L-arginine], the NO biosynthesis (cytokine-stimulated VSMC; 1 mM for 5 minutes (data not shown)) is reported as “did not significantly increase NO biosynthesis”, the “elevation of NO production” value (cytokine-stimulated VSMC; high concentrations, up to 1mM) is reported as “not observed” and the “NO2 synthesis by cytokine stimulated VSMC” value (rat VSMC) is reported as “progressive increase in NO2 synthesis”.

With `N=C(N)NCCC[C@@H](NC(=O)[C@@H](CCCNC(=N)N)NC(=O)[C@@H](CCCNC(=N)N)NC(=O)[C@@H](CCCNC(=N)N)NC(=O)[C@@H](CCCNC(=N)N)NC(=O)[C@@H](CCCNC(=N)N)NC(=O)[C@@H](CCCNC(=N)N)NC(=O)CCCC[C@@H]1SC[C@@H]2NC(=O)N[C@@H]21)C(=O)O` [bD-r7] the “positive staining (internalized biotin)” value [1] was “No significant positive staining was observed” and the “residual nuclear biotin in endothelial and medial cells” value ([1]; days 1 and 2 after exposure (10.0 µM, 30 minutes)) was “greater in vascular segments treated with bD-r7 than those treated with bL-R7”.

With `N=C(N)NCCC[C@H](NC(=O)[C@H](CCCNC(=N)N)NC(=O)[C@H](CCCNC(=N)N)NC(=O)[C@H](CCCNC(=N)N)NC(=O)[C@H](CCCNC(=N)N)NC(=O)[C@H](CCCNC(=N)N)NC(=O)[C@H](CCCNC(=N)N)NC(=O)CCCC[C@@H]1SC[C@@H]2NC(=O)N[C@@H]21)C(=O)O` [bR7, biotin-labeled heptaarginine] the “positive staining (internalized biotin)” value [1] was “No significant positive staining was observed”.

For `O=C(O)CCCC[C@@H]1SC[C@@H]2NC(=O)N[C@@H]21` [biotin], the internalized biotin signals [2] was “No internalized biotin signals were detected”.
